The source of these data is PMC7156724, “Potent BRD4 inhibitor suppresses cancer cell-macrophage interaction” (Nature Communications, 2020).

For one assay, the system named is A2780 cells. In words: Clonogenic (colony formation) assay, A2780. The conditions noted are these: A2780, 250 nM, 5 days. Format: cell-based, human. The procedure: (§1) Fig. 2 NHWD-870 inhibited BRD4 phosphorylation and c-MYC expression, and suppressed cell growth. a Representative western blot analysis of p-BRD4 (s484/488), BRD4, c-MYC, and GAPDH after treatment of MDA-MB231, SUM159, A2780 ES-2, and H526 cells with JQ-1 or NHWD-870 at the indicated concentrations for 24 h. GAPDH served as the loading control. Selected from three independent experiments. b MTT assays of H526, A2780, ES-2, and MDA-MB231 cells treated with JQ-1 or NHWD-870 at the indicated concentrations for 5 days. Data are presented as mean ± SEM from three independent experiments. c, d Clonogenic assays of H526, A2780, ES-2 and MDA-MB231 cells treated with 250 nM JQ-1 or NHWD-870 for 5 days. Shown are representative images (c) and quantification of colonies (d). […] Shown are representative images (e) and quantification of relative colony sizes (f). Scale bar, 50 μm. Data are presented as mean ± SEM from five independent experiments. p values were calculated using two-tailed, unpaired t tests in this figure. **p < 0.01; ***p < 0.001. Source data are provided as a Source Data file. […]
(§2) 5. Colony formation assay. Cells were seeded in 6-well plates at 3,000 cells/well […]
(§3) every week. […] Colony numbers were calculated with imageJ version

In assay [1] the test system is TAMs (CD68+ cells) in A2780 tumors. Description: Immunofluorescent staining of CD68 and Ki67 (TAMs) in subcutaneous A2780 tumors. Format: in vivo, mouse. The conditions noted are these: individual tumors. An excerpt: Shown are immunofluorescent staining of CD68 (macrophage marker, red) and E-Cadherin (cancer cells, green) (a) and quantification of CD68 positive cells (b) in vehicle, NHWD-870 treated H526 (n = 6) and A2780 (n = 5) tumors from Fig. 3a, b, respectively. Scale bar is 100 μm. […] Shown are representative immunofluorescent staining of Ki67 and CD68 (c) and quantification of percentage of Ki67+ cells in CD68+ cells (d). Scale bar is 30 μm. Data are presented as mean ± SEM of five different tumors. e Schematics of the animal experiments using an orthotopic mouse OC model, established by intraperitoneally injecting human A2780 cells into female recipient nude mice. […] Shown are representative immunofluorescent staining of Ki67 and CD68 (h) and quantification of Ki67^+CD68^− (i) or Ki67^+CD68^+ (j), or CD68^+ cells (k). […] Data are presented as mean ± SEM from five different mice. p values were calculated using two-tailed, unpaired t tests in this figure. *p < 0.05; **p < 0.01; ***p < 0.001. […]
Immunofluorescence staining of tumor sections was performed according to the manufacturer’s instructions. Slides were imaged using a Zeiss Axiovert 200 fluorescence microscope (Carl Zeiss MicroImaging; Thornwood, NY), and images were captured using Openlab3 software (Imprecision, Lexington, MA). Cleaved caspase 3, Ki67, CSF1, and CD68 positive cells were counted with ImageJ version 1.52s[58].

The test system of the next assay is MDA-MB231 cells. In words: Clonogenic (colony formation) assay, MDA-MB231. Type of assay: cell-based, human. The settings on record: MDA-MB231, 250 nM, 5 days. The procedure: as §1, §2, §3
A further assay concerns H526 cells. In words: Clonogenic (colony formation) assay, H526. Type of assay: cell-based, human. The conditions noted are these: H526, 250 nM, 5 days. The procedure: as §1, §2, §3
The next assay deals with CSF1 protein. Description: ELISA of CSF1 protein in supernatant of human tumor cells (A2780, SKOV3, A375). Format: cell-based. The conditions noted are these: 10^6 A375 cells, 25 nM, 24 h. The procedure:
A2780 tumor cells were pretreated with 100 nM NHWD-870 and then directly co-cultured with TAMs (A2780:TAMs ratio as 4:1) at the density of 1 × 10^5 total cells in a 12-well. Shown are immunofluorescent staining of Ki67 and CD68 (a) and quantification of Ki67+ and CD68− or CD68+ cells (b). Scale bar is 50 μm. […] A2780 cells (pre-treated with or without 100 nM NHWD-870 for 48 h) were seeded into the top chamber (transwell size: 0.4 μm) and TAMs (Mac, 40,000 cells per 24-well) in medium containing 2% matrigel were seeded into the bottom chamber pre-coated with Matrigel. No NHWD-870 was added to the co-culture. The upper chamber without A2780 cells was used as a control. Shown are schematics of transwell co-culture experiment (c), representative pictures of TAM spheroid (d: black/white), and quantification of spheroid volumes (e). Scale bar is 50 μm. […] Data are presented as mean ± SEM from three independent experiments. g CSF1 protein levels in supernatant of 10^6 ID8, B16, A2780, SKOV3, and A375 cells treated with DMSO or 25 nM NHWD-870 for 24 h, as measured by ELISA. […] Scale bar is 20 μm. i Quantification of CSF1 staining in DMSO or 100 nM NHWD-870 treated A2780 cells. […] Shown are representative immunofluorescent staining of CSF1 (green) and CD68 (red) (j) and quantification of CSF1 staining (k). […]
In general terms: An ELISA detects its analyte on a solid surface through an enzyme-linked reagent.

Values joined by “and” are separate entries in the source; they are usually repeats but may differ in a detail not shown here. Identical values can stand only once.

With `Cc1nnn(C)c1-c1cnc2c3c4cnn(C)c4ccc3n([C@H](c3ccccc3)C3CCOCC3)c2c1` [NHWD-870], the “Clone Number (clonogenic assay)” value in the assay on A2780 cells is 378 and 355 and 313 and 209 and 273; with MDA-MB231 cells, 571 and 603 and 635 and 542 and 519; in the assay with H526 cells, 75 and 84 and 92 and 65 and 76. In assay [1] (subcutaneous A2780 tumors from Fig. 3b), the “quantification of CD68 positive cells” value was 0.5 and 0.3 and 0.2 and 1.2 and 2.3. In addition, the “percentage of Ki67+ cells in CD68+ cells” value in assay [1] (subcutaneous A2780 tumors) is 3.1 and 0 (3×) and 1.7. Besides, in the assay on CSF1 protein, the “CSF1 protein levels in supernatant (ELISA)” value is 26 and 36 and 31.
